Two compounds from ChEMBL document CHEMBL4715753, “Bridging computational modeling with amino acid replacements to investigate GHS-R1a-peptidomimetic recognition” (Eur J Med Chem, 2016) can be followed below.

Each structure is given as a SMILES string.

The target of this test is Growth hormone secretagogue receptor type 1 (Homo sapiens, UniProt Q92847). Kind of test: Displacement of [125I-His9]-ghrelin from GHS-R1a (unknown origin) expressed in human HEK293 cells incubated for 20 mins by gamma scintillation counting method. Format: cell-based. For orientation: Displacement assays read how much labelled ligand stays bound in the presence of the test substance.
Growth hormone secretagogue receptor type 1, sequence (Q92847 whole entry): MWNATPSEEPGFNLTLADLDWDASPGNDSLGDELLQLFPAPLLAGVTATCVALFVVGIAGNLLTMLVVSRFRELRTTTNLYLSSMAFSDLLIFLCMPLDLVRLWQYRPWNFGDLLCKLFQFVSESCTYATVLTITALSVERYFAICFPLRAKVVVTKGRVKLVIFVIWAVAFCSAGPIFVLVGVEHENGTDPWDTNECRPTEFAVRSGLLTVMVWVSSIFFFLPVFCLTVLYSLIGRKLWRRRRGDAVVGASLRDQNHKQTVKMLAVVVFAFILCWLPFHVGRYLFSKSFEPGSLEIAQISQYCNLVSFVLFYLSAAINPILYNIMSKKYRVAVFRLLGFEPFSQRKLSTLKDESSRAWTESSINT

For the compound `NCCCC[C@H](NC(=O)[C@H](Cc1ccncc1)NC(=O)[C@@H](Cc1ccc2ccccc2c1)NC(=O)[C@@H](Cc1ccc2ccccc2c1)NC(=O)C1CCNCC1)C(N)=O`, the IC50 was determined as 25 nM. As for `C[C@H](NC(=O)C1CCNCC1)C(=O)N[C@H](Cc1ccc2ccccc2c1)C(=O)N[C@@H](Cc1ccccc1)C(=O)N[C@@H](CCCCN)C(N)=O`, the figure is above 10000 nM.

A word on the IC50: it is the midpoint of a concentration-inhibition curve.
